Where two headings read alike, the source gives them in different places.
Key:
[1] = Plasma pharmacokinetics of LMP744, non-compartmental; format: in vivo, human; details: for half-life / AUC(0-inf) / AUC(0-t) / Cmax / Tmax: human, plasma, intravenous
Procedure: Blood was collected during cycle 1 in the LMP744 study on C1D1 at the end of infusion (EOI), then again at 0.25, 0.5, 1, 2, 4, and 6 h after EOI. Blood was also collected prior to infusion and at EOI on days 2–5 during cycle 1, then again at 1 week (168 h) after C1D1 EOI. Samples were collected in EDTA tubes with 2 mL of blood per sample. Samples were centrifuged and plasma was stored at − 70 °C. Samples were analyzed using a validated LC–MS or LC–MS/MS method for each IIQ as previously described. Plasma-time data were analyzed using WinNonlin (Pharsight, Mountain View, CA). AUC values were calculated by non-compartmental analysis and end-of-infusion concentrations were measured on days 1 and 5 of cycle 1. Sample collection and analysis of LMP776 pharmacokinetics were performed as previously described.

cCasp3 = assay: IFA of paired tumor biopsies: cCasp3 co-localized with γH2AX (apoptosis); format: in vivo, human; details: patient 29, MTD, C1D2
Description: The LMP744 protocol collected pre-treatment (baseline) and on-treatment paired biopsies from patients in the expansion cohort. Core needle tumor biopsies (18-gauge) were collected and flash-frozen at point of collection per NCI SOPs (https://dctd.cancer.gov/ResearchResources/biomarkers/docs/par/SOP340507_Biopsy_Frozen.pdf) as described to preserve labile post-translational modifications such as phosphorylation. Biopsy pairs were thawed in formalin, fixed in paraffin embedded together with control tissues following NCI SOP340550 (https://dctd.cancer.gov/ResearchResources/biomarkers/DDR3/SOP340550_Biopsy_Section_Testis_Jejunum_Controls.pdf). TOP1 and TOP1cc were measured with a cocktail containing custom-conjugated rabbit monoclonal antibody anti-TOP1-DIG (Abcam, EPR5376 (2)) and mouse monoclonal antibody anti-TOP1cc (clone 1.1A [34, 35], EMD Millipore) that were detected with reporter secondary antibodies AlexaFluor-647 IgG fraction monoclonal mouse anti-digoxin (Jackson ImmunoResearch) and goat/anti-mouse AlexaFluor-488, respectively. Phosphorylated KAP1 (pKAP1, phosphorylated at S824) was measured using custom-conjugated pKAP1-pS824-DNP (Abcam, EPR5248) and detected with AlexaFluor-488 conjugated with anti-dinitrophenyl-KLH rabbit IgG Antibody Fraction (DNP-488, ThermoFisher). […]

`COc1cc2c3c(n(CCCNCCO)c(=O)c2cc1OC)-c1cc2c(cc1C3=O)OCO2` [LMP744] showed a Cl ([1]; DL1, 6 mg/m2, n=1) of 42.3 L/h/m2, a Vss ([1]; DL1, 6 mg/m2, n=1) of 1033.0 L/m2 and a Cl ([1]; DL2, 12 mg/m2, n=1) of 74.0 L/h/m2. For the same molecule, the Vss ([1]; DL2, 12 mg/m2, n=1) was 1369.0 L/m2, the Cl ([1]; DL3, 24 mg/m2, n=3) was 77.9 (11.2) L/h/m2 and the Vss ([1]; DL3, 24 mg/m2, n=3) was 1312.7 L/m2. It also gave a Cl ([1]; DL4, 48 mg/m2, n=1) of 72.7 L/h/m2, a Vss ([1]; DL4, 48 mg/m2, n=1) of 828.0 L/m2 and a Cl ([1]; DL5, 96 mg/m2, n=1) of 51.7 L/h/m2. For the same molecule, the Vss ([1]; DL5, 96 mg/m2, n=1) was 836.6 L/m2, the Cl ([1]; DL6 (MTD), 190 mg/m2, n=16) was 59.1 (26.6) L/h/m2 and the Vss ([1]; DL6 (MTD), 190 mg/m2, n=16) was 845.0 L/m2. The Cl ([1]; DL7, 260 mg/m2, n=10) was 73.8 (35.4) L/h/m2, the Vss ([1]; DL7, 260 mg/m2, n=10) was 867.8 L/m2 and the half-life ([1]; 6 mg/m2, DL1, 6 mg/m2, n=1, read-out: t1/2 (converted)) was 23.4 h. The half-life ([1]; 12 mg/m2, DL2, 12 mg/m2, n=1, read-out: t1/2 (converted)) was 19.1 h, the half-life ([1]; 24 mg/m2, DL3, 24 mg/m2, n=3, read-out: t1/2 (converted)) was 14 h and the half-life ([1]; 48 mg/m2, DL4, 48 mg/m2, n=1, read-out: t1/2 (converted)) was 15.5 h. For the same molecule, the half-life ([1]; 96 mg/m2, DL5, 96 mg/m2, n=1, read-out: t1/2 (converted)) was 16.2 h, the half-life ([1]; 190 mg/m2, DL6 (MTD), 190 mg/m2, n=16, read-out: t1/2 (mean half-life) (converted)) was 13.6 h and the half-life ([1]; 190 mg/m2, MTD (DL6, 190 mg/m^2, n = 16), read-out: Half-life, range) was 7.2 to 23.4 h. It also gave a half-life ([1]; 190 mg/m^2, patient 8, Hodgkin lymphoma, read-out: Longest drug half-life measured in this study (converted)) of 23.4 h, a half-life ([1]; 260 mg/m2, DL7, 260 mg/m2, n=10, read-out: t1/2 (converted)) of 10.9 h and an AUC(0-inf) ([1]; DL1, 6 mg/m2, n=1) of 0.142 µg·h/mL. The AUC(0-t) ([1]; DL1, 6 mg/m2, n=1) was 0.0917 µg·h/mL, the Cmax ([1]; DL1, 6 mg/m2, n=1) was 0.0484 µg/mL and the Tmax ([1]; DL1, 6 mg/m2, n=1) was 1 h. The AUC(0-inf) ([1]; DL2, 12 mg/m2, n=1) was 0.162 µg·h/mL, the AUC(0-t) ([1]; DL2, 12 mg/m2, n=1) was 0.117 µg·h/mL and the Cmax ([1]; DL2, 12 mg/m2, n=1) was 0.0696 µg/mL. For the same molecule, the Tmax ([1]; DL2, 12 mg/m2, n=1) was 1 h, the AUC(0-inf) ([1]; DL3, 24 mg/m2, n=3) was 0.313 µg·h/mL and the AUC(0-t) ([1]; DL3, 24 mg/m2, n=3) was 0.234 µg·h/mL. The Cmax ([1]; DL3, 24 mg/m2, n=3) was 0.0781 µg/mL, the Tmax ([1]; DL3, 24 mg/m2, n=3) was 1.6 h and the AUC(0-inf) ([1]; DL4, 48 mg/m2, n=1) was 0.8 µg·h/mL. For the same molecule, the AUC(0-t) ([1]; DL4, 48 mg/m2, n=1) was 0.632 µg·h/mL, the Cmax ([1]; DL4, 48 mg/m2, n=1) was 0.446 µg/mL and the Tmax ([1]; DL4, 48 mg/m2, n=1) was 1 h. For the same molecule, the AUC(0-inf) ([1]; DL5, 96 mg/m2, n=1) was 1.86 µg·h/mL, the AUC(0-t) ([1]; DL5, 96 mg/m2, n=1) was 1.39 µg·h/mL and the Cmax ([1]; DL5, 96 mg/m2, n=1) was 0.433 µg/mL. It also gave a Tmax ([1]; DL5, 96 mg/m2, n=1) of 1 h, an AUC(0-inf) ([1]; DL6 (MTD), 190 mg/m2, n=16) of 4.65 µg·h/mL and an AUC(0-t) ([1]; DL6 (MTD), 190 mg/m2, n=16) of 3.77 µg·h/mL. It also gave a Cmax ([1]; DL6 (MTD), 190 mg/m2, n=16) of 1.57 µg/mL, a Tmax ([1]; DL6 (MTD), 190 mg/m2, n=16) of 1 h and an AUC(0-inf) ([1]; DL7, 260 mg/m2, n=10) of 4.1 µg·h/mL. The AUC(0-t) ([1]; DL7, 260 mg/m2, n=10) was 3.58 µg·h/mL, the Cmax ([1]; DL7, 260 mg/m2, n=10) was 1.51 µg/mL and the Tmax ([1]; DL7, 260 mg/m2, n=10) was 1 h. The “Dependence of half-life on dose” value ([1]; in vivo) was “did not vary with dose level”, the “Systemic exposure (AUC) versus dose level” value ([1]; in vivo) was “increased linearly with dose level” and the “Co-localized cytoplasmic cCASP3” value (cCasp3) was “increase in co-localized cytoplasmic cCASP3”.
